Results reported in ChEMBL document CHEMBL1201862, “PubChem BioAssay data set” (2004).
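Dose response: 5 concentrations. Exposure: 48 h. Format: 96-well plates. Endpoint: linear interpolation; highest concentration if not reached. Abbreviation: GI50, concentration required for 50% inhibition of growth.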 Active and inactive are the calls of the source. No stated cut-off is given here; in the data, active = GI50 up to about 1.1 µM and inactive = higher.

How the values were obtained:
Experiment in all cases: growth of human tumour cells (NCI), 48 h
CAKI-1 = system: CAKI-1
SK-MEL-28 = system: SK-MEL-28
M14 = system: M14
UACC-257 = system: UACC-257
SN12C = system: SN12C
SK-OV-3 = system: SK-OV-3
HCT-116 = system: HCT-116
NCI-H460 = system: NCI-H460
MDA-MB-435 = system: MDA-MB-435
HCT-15 = system: HCT-15
OVCAR-5 = system: OVCAR-5
NCI-H522 = system: NCI-H522
786-0 = system: 786-0
HL-60 = system: HL-60
UACC-62 = system: UACC-62
MDA-N = system: MDA-N
HCC 2998 = system: HCC 2998
KM12 = system: KM12
OVCAR-8 = system: OVCAR-8
SNB-75 = system: SNB-75

SMILES | GI50 (CAKI-1) | GI50 (SK-MEL-28) | GI50 (M14) | GI50 (UACC-257) | GI50 (SN12C) | GI50 (SK-OV-3) | GI50 (HCT-116) | GI50 (NCI-H460) | GI50 (MDA-MB-435) | GI50 (HCT-15) [µM] | GI50 (OVCAR-5) | GI50 (NCI-H522) | GI50 (786-0) | GI50 (HL-60) | GI50 (UACC-62) | GI50 (MDA-N) | GI50 (HCC 2998) | GI50 (KM12) | GI50 (OVCAR-8) | GI50 (SNB-75)
O=c1[nH]c2ccccc2c(=O)c2cc3ccccc3cc12 | 16.2 µM (inactive) | 67 µM (inactive) | 45.3 µM (inactive) | > 100 µM (inactive) | 71.4 µM (inactive) | 11.8 µM (inactive) | 5.78 µM (inactive) | 16.4 µM (inactive) | > 100 µM (inactive) | 74.8 | > 100 µM (inactive) | 10.6 µM (inactive) | 6.58 µM (inactive) | 40 µM (inactive) | 41.6 µM (inactive) | > 100 µM (inactive) | > 100 µM (inactive) | 97.3 µM (inactive) | 10 µM (inactive) | 3.92 µM (inactive)
CC(=O)SC(C[N+](=O)[O-])c1ccc2c(c1)OCO2 (stereo not given) | 6.56 µM (inactive) | 3.15 µM (inactive) | 5.9 µM (inactive) | 9.1 µM (inactive) | 5.73 µM (inactive) | 7.24 µM (inactive) | 2.31 µM (inactive) | 11.2 µM (inactive) | 3.54 µM (inactive) | 3.32 | 7.83 µM (inactive) | 5.22 µM (inactive) | 3.64 µM (inactive) | 1.97 µM (inactive) | 5.62 µM (inactive) | 2.1 µM (inactive) | 1.73 µM (inactive) | 4.75 µM (inactive) | 13.6 µM (inactive) | 9.59 µM (inactive)
CCOC(=O)c1nnsc1NN=C(C)C | > 100 µM (inactive) | > 100 µM (inactive) | > 100 µM (inactive) | > 100 µM (inactive) | > 100 µM (inactive) | > 100 µM (inactive) | > 100 µM (inactive) | > 100 µM (inactive) | > 100 µM (inactive) | > 100 | > 100 µM (inactive) | > 100 µM (inactive) | > 100 µM (inactive) | > 100 µM (inactive) | > 100 µM (inactive) | > 100 µM (inactive) | > 100 µM (inactive) | > 100 µM (inactive) | > 100 µM (inactive) | > 100 µM (inactive)
C=CC/C(C(=O)OC)=C(/C(=O)OC)N(CCC)CCC | > 100 µM (inactive) | > 100 µM (inactive) | > 100 µM (inactive) | > 100 µM (inactive) | > 100 µM (inactive) | > 100 µM (inactive) | 57.9 µM (inactive) | > 100 µM (inactive) | > 100 µM (inactive) | > 100 | > 100 µM (inactive) | 83.8 µM (inactive) | > 100 µM (inactive) | 23 µM (inactive) | > 100 µM (inactive) | > 100 µM (inactive) | > 100 µM (inactive) | > 100 µM (inactive) | > 100 µM (inactive) | > 100 µM (inactive)
CCCn1c2ccccc2c2ccc3c(c21)C(=O)C=CC3=O | 2.78 µM (inactive) | 2.2 µM (inactive) | 2.18 µM (inactive) | 1.78 µM (inactive) | 3.78 µM (inactive) | > 10 µM (inactive) | 1.63 µM (inactive) | > 10 µM (inactive) | 2.3 µM (inactive) | 2.24 | > 10 µM (inactive) | 1.98 µM (inactive) | 1.84 µM (inactive) | 0.938 µM (active) | 4.13 µM (inactive) | 2.65 µM (inactive) | > 9.68 µM (inactive) | > 10 µM (inactive) | 2.54 µM (inactive) | > 10 µM (inactive)
Nc1nccc(Nc2ccc(S(N)(=O)=O)cc2)n1 | > 100 µM (inactive) | > 100 µM (inactive) | > 100 µM (inactive) | > 100 µM (inactive) | > 100 µM (inactive) | > 100 µM (inactive) | > 100 µM (inactive) | > 100 µM (inactive) | > 100 µM (inactive) | > 100 | > 100 µM (inactive) | > 100 µM (inactive) | > 100 µM (inactive) | > 100 µM (inactive) | > 100 µM (inactive) | > 100 µM (inactive) | > 100 µM (inactive) | > 100 µM (inactive) | > 100 µM (inactive) | > 100 µM (inactive)
